The test addresses T1, human NLRP3 (Homo sapiens, UniProt Q96P20).
T1 construct: Human whole blood is drawn from healthy volunteers after obtaining written informed consent; from tissue; host or cells: human whole blood from healthy volunteers (heparin lithium tubes)
The experiment in a line: Human whole blood (hWB) NLRP3 assay (IL-1β release after LPS priming and ATP activation). Type of test: cell-based. Conditions: for IC50: human whole blood; for fold improvement in activity compared to Compound 3 (hWB IL-1β IC50): additional ring N atom versus Compound 3 with lactam ring N as sole N ring atom, Table E. How it is done: Human Whole Blood (hWB) NLRP3 Assay
Human whole blood is drawn from healthy volunteers after obtaining written informed consent. Heparin lithium coated tubes are used to collect blood from volunteers. Blood samples are distributed on 96 well plates using 90 μl per well.
Priming procedure: Priming is performed by adding 5 μl of LPS (026:B6; Sigma L-2654) at a final concentration of 1 μg/ml for 4.5 hours in a humidified incubator with 37° C., 5% CO2. Thirty minutes prior to NLRP3 activation, 5 μl of a 20× compound solution or vehicle (2% dimethylsulfoxide (DMSO)) is added to each well and plates were incubated on a shaker (450 rpm) in a humidified incubator with 37° C., 5% CO2.
Alternative priming procedure: Thirty minutes prior to LPS priming, 5 μl of a 20× compound solution or vehicle (2% dimethylsulfoxide (DMSO)) is added to each well and plates were incubated on a shaker (450 rpm) in a humidified incubator with 37° C., 5% CO2. Priming is performed by adding 5 μl of LPS (026:B6; Sigma L-2654) at a final concentration of 1 μg/ml for 5 hours in a humidified incubator with 37° C., 5% CO2.
Activation is then performed by adding 3.3 μl of a 31×ATP solution per well. At the end of the 30 minutes stimulation, the plates are centrifuged (800 g, 10 min, room temperature) and the plasma from each well is frozen at −80° C. […] levels in the supernatant were analyzed using a mesoscale discovery assay (MSD K151TUK) according to the manufacturers' instructions.
There is no detectable difference in assay IC50 results using the priming procedure versus the alternative priming procedure.
Data provided in Table C, below. hWB […] Assay: A represents an IC50 value <0.3 μM; B represents an IC50 value ≥0.3 μM and <0.5 μM; C represents an IC50 value ≥0.5 μM and <1.0 μM; D represents an IC50 value ≥1.0 μM and <10 μM; E represents an IC50 value ≥10 μM. Dashed (--) lines indicate no data available.

Setting [1] is: LPS 1 μg/ml priming, ATP activation, Table C, class symbols, read-out: hWB IL-1β IC50.
[2] abbreviates: numeric values of Tables D and E, read-out: hWB IL-1β IC50.

Where two headings read alike, the source gives them in different places.

In general, IC50 refers to the midpoint of a concentration-inhibition curve.

T1 sequence (Q96P20 whole entry): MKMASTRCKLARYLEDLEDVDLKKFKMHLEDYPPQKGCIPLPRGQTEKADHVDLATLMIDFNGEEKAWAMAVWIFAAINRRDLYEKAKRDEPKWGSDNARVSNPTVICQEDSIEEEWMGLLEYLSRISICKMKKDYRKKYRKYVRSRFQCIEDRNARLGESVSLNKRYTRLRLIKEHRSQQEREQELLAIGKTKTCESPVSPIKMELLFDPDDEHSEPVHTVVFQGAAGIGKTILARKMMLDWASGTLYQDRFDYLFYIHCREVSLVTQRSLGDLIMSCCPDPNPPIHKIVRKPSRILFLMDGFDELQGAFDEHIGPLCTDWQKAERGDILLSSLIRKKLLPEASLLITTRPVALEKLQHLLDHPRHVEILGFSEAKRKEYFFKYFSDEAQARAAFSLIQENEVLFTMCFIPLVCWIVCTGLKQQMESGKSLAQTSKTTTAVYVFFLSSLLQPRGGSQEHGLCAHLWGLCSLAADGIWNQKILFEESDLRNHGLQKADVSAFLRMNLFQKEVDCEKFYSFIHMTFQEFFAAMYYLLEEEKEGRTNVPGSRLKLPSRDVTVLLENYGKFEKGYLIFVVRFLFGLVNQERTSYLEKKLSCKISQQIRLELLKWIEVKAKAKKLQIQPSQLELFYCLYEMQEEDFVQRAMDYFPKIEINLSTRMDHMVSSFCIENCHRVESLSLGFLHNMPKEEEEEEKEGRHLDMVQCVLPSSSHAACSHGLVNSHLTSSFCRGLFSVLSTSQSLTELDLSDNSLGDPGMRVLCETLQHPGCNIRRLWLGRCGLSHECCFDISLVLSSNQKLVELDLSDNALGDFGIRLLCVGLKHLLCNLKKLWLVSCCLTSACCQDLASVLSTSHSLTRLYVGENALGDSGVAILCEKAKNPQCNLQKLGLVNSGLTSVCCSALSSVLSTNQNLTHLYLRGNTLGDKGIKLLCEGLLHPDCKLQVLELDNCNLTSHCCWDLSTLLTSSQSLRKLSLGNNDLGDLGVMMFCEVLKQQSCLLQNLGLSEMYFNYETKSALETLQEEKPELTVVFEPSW

With `CC1(C)C(=O)N(c2cc3ccccc3n(CCCC(=O)O)c2=O)c2c(F)cc(C3CC3)c(F)c21` [Compound 9, 4-(3-(5-cyclopropyl-4,7-difluoro-3,3-dimethyl-2-oxoindolin-1-yl)-2-oxoquinolin-1(2H)-yl)butanoic acid], the concentration for half-maximal inhibition (IC50) under setting [1] fell in the range of 1000 to 10000 nM.

For `CC1(C)C(=O)N([C@@H]2CCN(CCCC(=O)O)C2=O)c2c(F)cc(C(F)(F)F)c(F)c21` (stereo in doubt) [Compound 19A*, (R)-4-(3-(4,7-difluoro-3,3-dimethyl-2-oxo-5-(trifluoromethyl)indolin-1-yl)-2-oxopyrrolidin-1-yl)butanoic acid], the concentration for half-maximal inhibition (IC50) under setting [1] is less than 300 nM. Further, the “hWB NLRP3 inhibitory activity compared to the (S)-isomer” value (isomer comparison, in words) is reported as “more active isomer”.

Consider `CC1(C)C(=O)N(c2nccn([C@@H]3CCC[C@H]3CC(=O)O)c2=O)c2c(F)cc(C3CC3)c(F)c21` (single isomer, unassigned) [Compound 20D*], for which, under setting [1], the IC50 lay in the range of 500 to 1000 nM.

As to `CC1(C)C(=O)N(c2cccn(CCCC(=O)O)c2=O)c2c(F)cc(C3CC3)c(F)c21` [Compound 3, 4-(3-(5-cyclopropyl-4,7-difluoro-3,3-dimethyl-2-oxoindolin-1-yl)-2-oxopyridin-1(2H)-yl)butanoic acid], the IC50 was 1000 to 10000 nM under setting [1] and 1900 nM under setting [2].

As for `CC1(C)C(=O)N(c2nccn(CCCC(=O)O)c2=O)c2ccc(C3CC3)c(F)c21` [Compound 21, 4-(3-(5-cyclopropyl-4-fluoro-3,3-dimethyl-2-oxoindolin-1-yl)-2-oxopyrazin-1(2H)-yl)butanoic acid], under setting [1], the half-maximal inhibitory concentration (IC50) was in the range of 1000 to 10000 nM.

On to `C[C@H](CC(=O)O)CN1CC[C@H](N2C(=O)C(C)(C)c3c(F)c(C4CC4)cc(F)c32)C1=O` (single isomer, unassigned) [Compound 26D*], for which the IC50 under setting [1] was not below 10000 nM.

For the compound `Cc1cc(N2C(=O)C(C)(C)c3c(F)c(C4CC4)cc(F)c32)c(=O)n(CCCC(=O)O)c1` [Compound 5, 4-(3-(5-cyclopropyl-4,7-difluoro-3,3-dimethyl-2-oxoindolin-1-yl)-5-methyl-2-oxopyridin-1(2H)-yl)butanoic acid], the IC50 under setting [1] is 1000 to 10000 nM.

`CC1(C)C(=O)N(c2cccn(CCCC(=O)O)c2=O)c2c(O)cc(Cl)cc21` [Compound 7, 4-(3-(5-chloro-7-hydroxy-3,3-dimethyl-2-oxoindolin-1-yl)-2-oxopyridin-1(2H)-yl)butanoic acid]: under setting [1], the IC50 lay in the range of 1000 to 10000 nM.

In the case of `CC1(C)C(=O)N(c2c(=O)n(CCCC(=O)O)cc3ccccc23)c2c(F)cc(C3CC3)c(F)c21` [Compound 15, 4-(4-(5-cyclopropyl-4,7-difluoro-3,3-dimethyl-2-oxoindolin-1-yl)-3-oxoisoquinolin-2(3H)-yl)butanoic acid], the IC50 under setting [1] is not below 10000 nM.

On to `CC1(C)C(=O)N(c2ccnn(CCCC(=O)O)c2=O)c2c(F)cc(C3CC3)c(F)c21` [Compound 11, 4-(5-(5-cyclopropyl-4,7-difluoro-3,3-dimethyl-2-oxoindolin-1-yl)-6-oxopyridazin-1(6H)-yl)butanoic acid], for which the “fold improvement in activity compared to Compound 3 (hWB IL-1β IC50)” value (from here on “fold improvement in activity”) is listed as 3-5 fold. The IC50 under setting [1] lay in the range of 500 to 1000 nM. Under setting [2], the IC50 amounted to 610 nM.

Regarding `CC1(C)C(=O)N(c2cc(C3CC3)cn(CCCC(=O)O)c2=O)c2c(F)cc(C3CC3)c(F)c21` [Compound 14, 4-(5-cyclopropyl-3-(5-cyclopropyl-4,7-difluoro-3,3-dimethyl-2-oxoindolin-1-yl)-2-oxopyridin-1(2H)-yl)butanoic acid], the half-inhibitory concentration (IC50) under setting [1] was 1000 to 10000 nM.

On to `CC1(C)C(=O)N(c2cc(C(F)(F)F)cn(CCCC(=O)O)c2=O)c2c(F)cc(C3CC3)c(F)c21` [Compound 12, 4-(3-(5-cyclopropyl-4,7-difluoro-3,3-dimethyl-2-oxoindolin-1-yl)-2-oxo-5-(trifluoromethyl)pyridin-1(2H)-yl)butanoic acid], for which the 50% inhibitory concentration (IC50) under setting [1] lay in the range of 1000 to 10000 nM.

With `CC1(C)C(=O)N([C@H]2CCN(CCCC(=O)O)C2=O)c2ccc(C3CC3)c(F)c21` (stereo in doubt) [Compound 18B*, (S)-4-(3-(5-cyclopropyl-4-fluoro-3,3-dimethyl-2-oxoindolin-1-yl)-2-oxopyrrolidin-1-yl)butanoic acid], the IC50 runs as follows: under setting [1], not below 10000 nM; (class symbol printed beside the numeric value in Tables D and E, read-out: hWB IL-1β IC50 activity class) not below 10000 nM; under setting [2], more than 500000 nM.

As to `CC1(C)C(=O)N(c2cccn(CCCC(=O)O)c2=O)c2c(F)cc(C3CC3)cc21` [Compound 2, 4-(3-(5-cyclopropyl-7-fluoro-3,3-dimethyl-2-oxoindolin-1-yl)-2-oxopyridin-1(2H)-yl)butanoic acid], the IC50 under setting [1] lay in the range of 1000 to 10000 nM.

Turning to `CC1(C)C(=O)N([C@@H]2CCN(CCCC(=O)O)C2=O)c2ccc(C3CC3)c(F)c21` (stereo in doubt) [Compound 18A*, (R)-4-(3-(5-cyclopropyl-4-fluoro-3,3-dimethyl-2-oxoindolin-1-yl)-2-oxopyrrolidin-1-yl)butanoic acid], the “fold more active than 18B* (hWB IL-1β IC50)” value (R-isomer versus S-isomer 18B*, Table D) is more than 147 fold. Moreover, the 50% inhibitory concentration (IC50) under setting [1] lay within 1000 to 10000 nM and the IC50 under setting [2] turned out to be 3400 nM.

With `CC1(C)C(=O)N(c2cncn(CCCC(=O)O)c2=O)c2c(F)cc(C3CC3)c(F)c21` [Compound 8, 4-(5-(5-cyclopropyl-4,7-difluoro-3,3-dimethyl-2-oxoindolin-1-yl)-6-oxopyrimidin-1(6H)-yl)butanoic acid], the “fold improvement in activity” value was 3-5 fold. In addition, the IC50 under setting [1] was in the range of 300 to 500 nM. For the same compound, the IC50 under setting [2] is 470 nM.

Take `CC1(C)C(=O)N(c2nccn(CCCC(=O)O)c2=O)c2c(F)cc(C3CC3)c(F)c21` [Compound 10, 4-(3-(5-cyclopropyl-4,7-difluoro-3,3-dimethyl-2-oxoindolin-1-yl)-2-oxopyrazin-1(2H)-yl)butanoic acid]: the “fold improvement in activity” value is recorded as 3-5 fold. In addition, the IC50 under setting [1] was in the range of 300 to 500 nM. Moreover, under setting [2], the half-inhibitory concentration (IC50) amounted to 390 nM.

For `CC1(C)C(=O)N([C@@H]2CCN(CCCC(=O)O)C2=O)c2c(F)cc(C3CC3)c(F)c21` [Compound 16A, (R)-4-(3-(5-cyclopropyl-4,7-difluoro-3,3-dimethyl-2-oxoindolin-1-yl)-2-oxopyrrolidin-1-yl)butanoic acid], the IC50 under setting [1] was less than 300 nM.

Take `CC1(C)C(=O)N(c2nccn([C@H]3CCC[C@@H]3CC(=O)O)c2=O)c2c(F)cc(C3CC3)c(F)c21` (single isomer, unassigned) [Compound 20C*]: the IC50 under setting [1] is 500 to 1000 nM.

Take `CC1(C)C(=O)N(c2cc(-c3ccccc3)cn(CCCC(=O)O)c2=O)c2c(F)cc(C3CC3)c(F)c21` [Compound 13, 4-(3-(5-cyclopropyl-4,7-difluoro-3,3-dimethyl-2-oxoindolin-1-yl)-2-oxo-5-phenylpyridin-1(2H)-yl)butanoic acid]: the IC50 under setting [1] was not below 10000 nM.

In the case of `Cc1ccc(N2C(=O)C(C)(C)c3c(F)c(C4CC4)cc(F)c32)c(=O)n1CCCC(=O)O` [Compound 6, 4-(3-(5-cyclopropyl-4,7-difluoro-3,3-dimethyl-2-oxoindolin-1-yl)-6-methyl-2-oxopyridin-1(2H)-yl)butanoic acid], the IC50 under setting [1] is 1000 to 10000 nM.

In the case of `CC1(C)C(=O)N([C@H]2CC(C)(C)N(CCCC(=O)O)C2=O)c2c(F)cc(C3CC3)c(F)c21` (single isomer, unassigned) [Compound 25B], the 50% inhibitory concentration (IC50) under setting [1] was not below 10000 nM.

As to `CC1(C)C(=O)N([C@@H]2CC(C)(C)N(CCCC(=O)O)C2=O)c2c(F)cc(C3CC3)c(F)c21` (single isomer, unassigned) [Compound 25A], under setting [1], the IC50 was not below 10000 nM.

For the compound `CC1(C)C(=O)N(c2nccn(CCCC(=O)O)c2=O)c2c(F)cc(C(F)(F)F)c(F)c21` [Compound 17, 4-(3-(4,7-difluoro-3,3-dimethyl-2-oxo-5-(trifluoromethyl)indolin-1-yl)-2-oxopyrazin-1(2H)-yl)butanoic acid], the IC50 under setting [1] lay within 500 to 1000 nM.

On to `C[C@H](CCC(=O)O)N1CC[C@@H](N2C(=O)C(C)(C)c3c(F)c(C4CC4)cc(F)c32)C1=O` (single isomer, unassigned) [Compound 24D*], for which the IC50 under setting [1] was in the range of 1000 to 10000 nM.

`C[C@@H](CC(=O)O)CN1CC[C@@H](N2C(=O)C(C)(C)c3c(F)c(C4CC4)cc(F)c32)C1=O` (single isomer, unassigned) [Compound 26A*]: the IC50 under setting [1] lay within 300 to 500 nM.

With `C[C@@H](CCC(=O)O)N1CC[C@@H](N2C(=O)C(C)(C)c3c(F)c(C4CC4)cc(F)c32)C1=O` (single isomer, unassigned) [Compound 24A*], the IC50 under setting [1] is 300 to 500 nM.

The record behind these values is patent US20260285831A1, “LACTAM DERIVATIVES FOR INHIBITING NLRP3 AND USES THEREOF” (Ventus Therapeutics U.S., Inc., priority 2023, published 2026).
